The results in this text go back to ChEMBL document CHEMBL4177632 (Bioorg Med Chem, 2017).

For assay [1], the target named is Aldo-keto reductase family 1 member A1 (Rattus norvegicus, UniProt P51635). Nature of the assay: Inhibition of ALR1 in Wistar rat kidney assessed as reduction in NADPH consumption preincubated for 1 min followed by substrate addition measured after 4 mins by spectrophotometric analysis.
The target of assay [2] is T1, Aldo-keto reductase family 1 member B1 (Rattus norvegicus, UniProt P07943). Nature of the assay: Inhibition of ALR2 in Wistar rat eye lens assessed as reduction in NADPH consumption preincubated for 1 min followed by D,L-glyceraldehyde addition measured after 4 mins by spectrophotometric analysis.
Assay [3] has as its target T1, Aldo-keto reductase family 1 member B1. The assay can be described thus: Uncompetitive inhibition of ALR2 in Wistar rat eye lens assessed as reduction in NADPH consumption preincubated for 1 min followed by D,L-glyceraldehyde addition measured after 4 mins by spectrophotometric analysis.
The target of assay [4] is T2, Aldo-keto reductase family 1 member B1 (Homo sapiens, UniProt P15121). Nature of the assay: Inhibition of recombinant human AKR1B1 using D,L-glyceraldehyde as substrate.
The target of assay [5] is Aldo-keto reductase family 1 member B10 (Homo sapiens, UniProt O60218). The assay can be described thus: Inhibition of recombinant human AKR1B10.
In assay [6] the target is T2, Aldo-keto reductase family 1 member B1. Nature of the assay: Uncompetitive inhibition of recombinant human AKR1B1 using D,L-glyceraldehyde as substrate.

Sequence of Aldo-keto reductase family 1 member A1 (P51635 whole entry, looked up): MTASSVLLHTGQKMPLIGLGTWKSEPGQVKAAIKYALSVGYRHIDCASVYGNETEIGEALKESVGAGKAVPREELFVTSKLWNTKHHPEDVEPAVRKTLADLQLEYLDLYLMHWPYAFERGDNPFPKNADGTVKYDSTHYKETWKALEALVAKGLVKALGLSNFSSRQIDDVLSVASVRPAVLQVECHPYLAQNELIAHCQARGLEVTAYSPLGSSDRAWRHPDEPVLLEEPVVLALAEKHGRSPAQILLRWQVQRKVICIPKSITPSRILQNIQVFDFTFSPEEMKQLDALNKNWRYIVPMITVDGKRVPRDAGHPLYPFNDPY
Sequence of Aldo-keto reductase family 1 member B10 (O60218 whole entry): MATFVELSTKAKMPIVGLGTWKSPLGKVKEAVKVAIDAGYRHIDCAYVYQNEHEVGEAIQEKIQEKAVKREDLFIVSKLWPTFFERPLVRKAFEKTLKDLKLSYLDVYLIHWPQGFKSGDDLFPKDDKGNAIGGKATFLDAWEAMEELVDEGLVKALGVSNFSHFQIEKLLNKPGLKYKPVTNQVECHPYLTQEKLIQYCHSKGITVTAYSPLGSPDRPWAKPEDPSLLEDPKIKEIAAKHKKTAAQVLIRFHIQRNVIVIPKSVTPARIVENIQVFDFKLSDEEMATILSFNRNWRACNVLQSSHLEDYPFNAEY

As a reminder, the IC50 is the concentration that inhibits the measured activity by half. Consider `Cc1c(C=O)c2ccccc2n1CC(=O)O`, for which the figures for the IC50 in assay [1] and in assay [2] were 11800 nM and 340 nM, respectively.

`CC(=O)N1CCc2c(c3ccccc3n2CC(=O)O)C1`: the IC50 is 21900 nM in assay [1] and 20.5 nM in assay [2].

`CC(C)N1CCc2c(c3ccccc3n2CC(=O)O)C1`: the results for the IC50 in assay [1] and in assay [2] were over 100000 nM and 34200 nM, respectively.

For orientation: Ki means the dissociation constant of the complex between target and ligand, obtained from inhibition or displacement. For `CCOC(=O)N1CCc2c(c3cc(OC)ccc3n2CC(=O)O)C1`, the IC50 in assay [1] was found to be 9980 nM; in assay [2], 12.6 nM; in assay [4], 83.5 nM; in assay [5], 9430 nM. Besides, the Ki in assay [3] was determined as 16.9 nM; in assay [6], 66.1 nM.

Regarding `CC(=O)c1c(C)n(CC(=O)O)c2ccccc12`, the IC50 in assay [1] came out at 11200 nM; in assay [2], 169 nM.

Turning to `O=C(O)Cn1c2c(c3ccccc31)CN(C(=O)C1CC1)CC2`, the values for the IC50 in assay [1] and in assay [2] were 7540 nM and 57.5 nM, respectively.

Consider `CCOC(=O)N1CCc2c(c3cc(C(=O)O)ccc3n2CC(=O)O)C1`, for which the IC50 in assay [1] turned out to be 4840 nM; in assay [2], 12.7 nM.
